Reference: PMC10515590 (ACS Omega, 2023)
≈ marks a conversion by molar mass, not a printed value. Like-named read-outs stand apart in the source and are kept apart here.

Legend:
[1] = cited from earlier work
[2] = Shake flask solubility in pH 6.8 phosphate buffer; assay type: physicochemical
[3] = Powder dissolution, USP apparatus II; assay type: physicochemical; settings: pH 6.8
[4] = after oral administration; cited from earlier work
[5] = Pharmacokinetic study after oral administration; assay type: in vivo, BALB/c mice; settings: female, BALB/c, mouse, plasma, 30 mg/kg
[6] = first pKa, 24 for cocrystal coformers

For `O=C(O)c1ccnc(C(=O)O)c1` [pyridine 2,4-dicarboxylic acid], the pKa [1, 6] is listed as 2.15.
In the case of `O=C(O)c1c(O)cccc1O` [2,6-dihydroxybenzoic acid], the “log P” value ([1]; coformers) is listed as 2.14.
For `O=C(O)c1ccc(O)cc1O` [2,4-dihydroxybenzoic acid], the pKa ([1]; second pKa, ref 24 for 2,4-dihydroxybenzoic acid) is given as 8.5.
For `O=C(O)CCCC(=O)O` [glutaric acid], the solubility of coformer ([1]; highly soluble coformers) is given as 1600 mg/mL.
For `Oc1ncnc2[nH]ncc12` [ALO, 1H-pyrazolo[3,4-d]pyrimidine-4(2H)-one], the aqueous solubility [1] is given as 0.8 mg/mL (≈ 5.88 mM), the pKa [1, 6] is given as 10.1 and the solubility at 4 h [2] is given as 0.687 mg/mL (≈ 5.05 mM). For the same compound, the solubility at 1 h [3] was 0.676 mg/mL (≈ 4.97 mM), the “time within which the drug is metabolized” value [4] was at most 2 h and the AUC(0-t) [5] was 36900 ng·h/mL. The Cmax [5] was 7010 ± 187 ng/mL.
